According to patent US20230022157A1 (Achillion Pharmaceuticals, Inc., priority 2018, published 2023):

What follows are compounds tested against T1, Human Factor D (Homo sapiens, UniProt P00746) (assay: Human Factor D Assay). Conditions: Human Factor D 80 nM, substrate Z-L-Lys-SBzl, assay of Example 3; read-out: IC50 (Stars).
T1 construct: purified from human serum; purchased Complement Technology, Inc; host or cells: human serum (natural protein, not recombinant)
Type: biochemical
Outline: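 Serum-purified human factor D (80 nM final) preincubated 5 min at room temperature with test compound in 50 mM Tris, 1M NaCl, pH 7.5. Z-L-Lys-SBzl substrate and DTNB then added, each at 100 μM final. IC50 from nonlinear regression of reaction rate against compound concentration.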

T1 sequence (P00746 26-253): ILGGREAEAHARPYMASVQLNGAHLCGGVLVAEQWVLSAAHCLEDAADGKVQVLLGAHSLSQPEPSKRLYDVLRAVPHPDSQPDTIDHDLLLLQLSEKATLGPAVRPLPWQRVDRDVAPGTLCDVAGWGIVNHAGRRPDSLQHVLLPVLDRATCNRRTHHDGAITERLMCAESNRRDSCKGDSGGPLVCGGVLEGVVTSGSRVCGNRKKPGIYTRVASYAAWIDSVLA

IC50 | SMILES
< 1000 nM | CC(=O)c1nn(CC(=O)N2[C@H](C(=O)NCCc3ccc(F)cc3)C[C@@]3(C)C[C@@H]23)c2c(C)cc(-c3cnc(C)nc3)cc12 [Compound 2, (1R,3S,5R)-2-(2-(3-Acetyl-7-methyl-5-(2-methylpyrimidin-5-yl)-1H-indazol-1-yl)acetyl)-N-(4-fluorophenethyl)-5-methyl-2-azabicyclo[3.1.0]hexane-3-carboxamide]
< 1000 nM | CC(=O)c1nn(CC(=O)N2C[C@H](F)C[C@H]2C(=O)Nc2cccc(Br)n2)c2ccc(-c3ccc(C)cc3)cc12 [Compound 29, (2S,4R)-1-(2-(3-Acetyl-5-(p-tolyl)-1H-indazol-1-yl)acetyl)-N-(6-bromopyridin-2-yl)-4-fluoropyrrolidine-2-carboxamide]

Same assay, conditions: Human Factor D 80 nM, substrate Z-L-Lys-SBzl; Table 2; read-out: IC50 (Stars)

SMILES | IC50
CC(=O)c1cn(CC(=O)N2[C@H](C(=O)Nc3nc(Br)c(F)cc3C)C[C@@]3(C)C[C@@H]23)c2c(C)cc(-c3cnc4cc(C)nn4c3)cc12 [Compound 209, (1R,3S,5R)-2-(2-(3-acetyl-7-methyl-5-(2-methylpyrazolo[1,5-a]pyrimidin-6-yl)-1H-indol-1-yl)acetyl)-N-(6-bromo-5-fluoro-3-methylpyridin-2-yl)-5-methyl-2-azabicyclo[3.1.0]hexane-3-carboxamide] | < 1000 nM
CC(=O)c1cn(CC(=O)N2[C@H](C(=O)Nc3ccc(C)c(Br)n3)C[C@@]3(C)C[C@@H]23)c2c(C)cc(-c3cnc(C)nc3)cc12 [Compound 156, (1R,3S,5R)-2-(2-(3-acetyl-7-methyl-5-(2-methylpyrimidin-5-yl)-1H-indol-1-yl)acetyl)-N-(6-bromo-5-methylpyridin-2-yl)-5-methyl-2-azabicyclo[3.1.0]hexane-3-carboxamide] | < 1000 nM
CC(=O)c1nn(CC(=O)N2[C@H](C(=O)Nc3nc(C(F)(F)F)ccc3C)C[C@@]3(C)C[C@@H]23)c2c(C)cc(-c3cnc4cc(C)nn4c3)cc12 [Compound 224, (1R,3S,5R)-2-(2-(3-acetyl-7-methyl-5-(2-methylpyrazolo[1,5-a]pyrimidin-6-yl)-1H-indazol-1-yl)acetyl)-5-methyl-N-(3-methyl-6-(trifluoromethyl)pyridin-2-yl)-2-azabicyclo[3.1.0]hexane-3-carboxamide] | < 1000 nM
CC(=O)c1nn(CC(=O)N2[C@H](C(=O)NC(C)Cc3cnccn3)C[C@@]3(C)C[C@@H]23)c2c(C)cc(-c3cnc(C)nc3)cc12 (stereo partly drawn) [Compound 188, (1R,3S,5R)-2-{2-[3-acetyl-7-methyl-5-(2-methylpyrimidin-5-yl)indazol-1-yl]acetyl}-5-methyl-N-[1-(pyrazin-2-yl)propan-2-yl]-2-azabicyclo[3.1.0]hexane-3-carboxamide] | < 1000 nM
CC(=O)c1nn(CC(=O)N2[C@H](C(=O)Nc3nc(Br)c(F)cc3C)C[C@@]3(C)C[C@@H]23)c2c(C)cc(-c3cnc(CO)nc3)cc12 [Compound 49, (1R,3S,5R)-2-(2-(3-acetyl-5-(2-(hydroxymethyl)pyrimidin-5-yl)-7-methyl-1H-indazol-1-yl)acetyl)-N-(6-bromo-5-fluoro-3-methylpyridin-2-yl)-5-methyl-2-azabicyclo[3.1.0]hexane-3-carboxamide] | < 1000 nM
CC(=O)c1nn(CC(=O)N2[C@H](C(=O)Nc3nc(Br)ccc3C)C[C@@]3(C)C[C@@H]23)c2c(C)cc(-c3cnc(C4(O)CC4)nc3)cc12 [Compound 169] | < 1000 nM
CCCC(C)(C)CNC(=O)[C@@H]1C[C@@]2(C)C[C@H]2N1C(=O)Cn1nc(C(C)=O)c2cc(-c3cnc(C)nc3)cc(C)c21 [Compound 116, (1R,3S,5R)-2-{2-[3-acetyl-7-methyl-5-(2-methylpyrimidin-5-yl)indazol-1-yl]acetyl}-N-(2,2-dimethylpentyl)-5-methyl-2-azabicyclo[3.1.0]hexane-3-carboxamide] | < 1000 nM
COc1cc(Br)nc(NC(=O)[C@@H]2C[C@@]3(C)C[C@H]3N2C(=O)Cn2nc(C(C)=O)c3cc(-c4cnc(CO)nc4)cc(C)c32)c1 [Compound 65, (1R,3S,5R)-2-(2-(3-acetyl-5-(2-(hydroxymethyl)pyrimidin-5-yl)-7-methyl-11H-indazol-1-yl)acetyl)-N-(6-bromo-4-methoxypyridin-2-yl)-5-methyl-2-azabicyclo[3.1.0]hexane-3-carboxamide] | < 1000 nM

Results, then the compound that gave them:

IC50 | SMILES
< 1000 nM | Cc1cc(F)c(Br)nc1NC(=O)[C@@H]1[C@@H]2C[C@@H]2CN1C(=O)Cn1nc(C(N)=O)c2cc(-c3cnc(CO)nc3)nc(C)c21 [Compound 168, 1-(2-((1R,2S,5S)-2-((6-bromo-5-fluoro-3-methylpyridin-2-yl)carbamoyl)-3-azabicyclo[3.1.0]hexan-3-yl)-2-oxoethyl)-5-(2-(hydroxymethyl)pyrimidin-5-yl)-7-methyl-1H-pyrazolo[3,4-c]pyridine-3-carboxamide]
< 1000 nM | CC(=O)c1cn(CC(=O)N2[C@H](C(=O)Nc3nc(C(F)(F)F)ccc3C)C[C@@]3(C)C[C@@H]23)c2c(C)cc(-c3cnc4c(O)c(C)nn4c3)cc12 [Compound 231, (1R,3S,5R)-2-(2-(3-acetyl-5-(3-hydroxy-2-methylpyrazolo[1,5-a]pyrimidin-6-yl)-7-methyl-1H-indol-1-yl)acetyl)-5-methyl-N-(3-methyl-6-(trifluoromethyl)pyridin-2-yl)-2-azabicyclo[3.1.0]hexane-3-carboxamide]
< 1000 nM | CC(=O)c1nn(CC(=O)N2[C@H](C(=O)N[C@H](c3ccccc3)C(F)(F)F)C[C@@]3(C)C[C@@H]23)c2c(C)cc(-c3cnc(C)nc3)cc12 [Compound 86, (1R,3S,5R)-2-{2-[3-acetyl-7-methyl-5-(2-methylpyrimidin-5-yl)indazol-1-yl]acetyl}-5-methyl-N-[(1R)-2,2,2-trifluoro-1-phenylethyl]-2-azabicyclo[3.1.0]hexane-3-carboxamide]
< 1000 nM | CC(=O)c1nn(CC(=O)N2[C@H](C(=O)NC(C)Cc3ccco3)C[C@@]3(C)C[C@@H]23)c2c(C)cc(-c3cnc(C)nc3)cc12 (stereo partly drawn) [Compound 180, (1R,3S,5R)-2-{2-[3-acetyl-7-methyl-5-(2-methylpyrimidin-5-yl)indazol-1-yl]acetyl}-N-[1-(furan-2-yl)propan-2-yl]-5-methyl-2-azabicyclo[3.1.0]hexane-3-carboxamide]
< 1000 nM | CC(=O)c1nn(CC(=O)N2[C@H](C(=O)Nc3nc(Br)ccc3C)C[C@@]3(C)C[C@@H]23)c2c(C)cc(-c3cnc(CO)cn3)cc12 [Compound 127, (1R,3S,5R)-2-(2-(3-acetyl-5-(5-(hydroxymethyl)pyrazin-2-yl)-7-methyl-1H-indazol-1-yl)acetyl)-N-(6-bromo-3-methylpyridin-2-yl)-5-methyl-2-azabicyclo[3.1.0]hexane-3-carboxamide]
< 1000 nM | Cc1ncc(-c2cc(C)c3c(c2)c(C(C)O)cn3CC(=O)N2[C@H](C(=O)Nc3nc(Br)ccc3C)C[C@@]3(C)C[C@@H]23)cn1 (stereo partly drawn) [Compound 191, (1R,3S,5R)—N-(6-bromo-3-methylpyridin-2-yl)-2-(2-(3-(1-hydroxyethyl)-7-methyl-5-(2-methylpyrimidin-5-yl)-1H-indol-1-yl)acetyl)-5-methyl-2-azabicyclo[3.1.0]hexane-3-carboxamide]
< 1000 nM | Cc1ncc(-c2cc3c(C(N)=O)nn(CC(=O)N4C[C@H]5C[C@H]5[C@H]4C(=O)Nc4nc(Br)c(F)cc4C)c3c(C)n2)cn1 [Compound 111, 1-{2-[2-(6-Bromo-5-fluoro-3-methyl-pyridin-2-ylcarbamoyl)-3-aza-bicyclo[3.1.0]hex-3-yl]-2-oxo-ethyl}-7-methyl-5-(2-methyl-pyrimidin-5-yl)-1H-pyrazolo[3,4-c]pyridine-3-carboxylic acid amide]
< 1000 nM | COc1ncc(-c2cc3c(C(C)=O)cn(CC(=O)N4[C@H](C(=O)Nc5nc(C(F)(F)F)ccc5C)C[C@@]5(C)C[C@@H]45)c3c(C)n2)cn1 [Compound 201, (1R,3S,5R)-2-(2-(3-acetyl-5-(2-methoxypyrimidin-5-yl)-7-methyl-1H-pyrrolo[2,3-c]pyridin-1-yl)acetyl)-5-methyl-N-(3-methyl-6-(trifluoromethyl)pyridin-2-yl)-2-azabicyclo[3.1.0]hexane-3-carboxamide]
< 1000 nM | Cc1ncc(-c2ccc3c(c2)c(C2OCCO2)nn3CC(=O)N2[C@H](C(=O)Nc3nc(Br)ccc3C)C[C@@]3(C)C[C@@H]23)cn1 [Compound 143, (1R,3S,5R)-2-(2-(3-(1,3-dioxolan-2-yl)-5-(2-methylpyrimidin-5-yl)-1H-indazol-1-yl)acetyl)-N-(6-bromo-3-methylpyridin-2-yl)-5-methyl-2-azabicyclo[3.1.0]hexane-3-carboxamide]
< 1000 nM | CC(=O)c1cn(CC(=O)N2[C@H](C(=O)Nc3nc(C(F)(F)F)ccc3C)C[C@@]3(C)C[C@@H]23)c2c(CF)cc(-c3cnc(C)nc3)cc12 [Compound 239, (1R,3S,5R)-2-(2-(3-acetyl-7-(fluoromethyl)-5-(2-methylpyrimidin-5-yl)-1H-indol-1-yl)acetyl)-5-methyl-N-(3-methyl-6-(trifluoromethyl)pyridin-2-yl)-2-azabicyclo[3.1.0]hexane-3-carboxamide]
< 1000 nM | CC(=O)c1cn(CC(=O)N2[C@H](C(=O)Nc3nc(C(F)(F)F)ccc3C)C[C@@]3(C)C[C@@H]23)c2c(C)cc(-c3cnc4cc(F)nn4c3)cc12 [Compound 225, (1R,3S,5R)-2-(2-(3-acetyl-5-(2-fluoropyrazolo[1,5-a]pyrimidin-6-yl)-7-methyl-1H-indol-1-yl)acetyl)-5-methyl-N-(3-methyl-6-(trifluoromethyl)pyridin-2-yl)-2-azabicyclo[3.1.0]hexane-3-carboxamide]
< 1000 nM | CC(=O)c1nn(CC(=O)N2[C@H](C(=O)Nc3nc(Br)ccc3C)C[C@@]3(C)C[C@@H]23)c2ccc(-c3cncc(C4(C(=O)O)CC4)c3)cc12 [Compound 98, 1-(5-(3-acetyl-1-(2-((1R,3S,5R)-3-((6-bromo-3-methylpyridin-2-yl)carbamoyl)-5-methyl-2-azabicyclo[3.1.0]hexan-2-yl)-2-oxoethyl)-1H-indazol-5-yl)pyridin-3-yl)cyclopropane-1-carboxylic acid]
